Earlier results as cited in patent US20240226204A9 (priority 2021, published 2024).

Tested on: COVID-19
Settings: human, in vivo

C[C@@H]1C[C@H]2[C@@H]3CCC4=CC(=O)C=C[C@]4(C)[C@@]3(F)[C@@H](O)C[C@]2(C)[C@@]1(O)C(=O)CO [dexamethasone]
mortality: increase in mortality

CCN(CCO)CCCC(C)Nc1ccnc2cc(Cl)ccc12 (stereo not drawn) [hydroxychloroquine]
efficacy / antiviral effect in clinical use against COVID-19: lack of efficacy

lopinavir-ritonavir
efficacy / antiviral effect in clinical use against COVID-19: lack of efficacy
